ChEMBL document CHEMBL5325399, “Pleiotropic effects of a mitochondrion-targeted glutathione reductase inhibitor on restraining tumor cells” (Eur J Med Chem, 2023)
The source made the active and inactive calls. No cut-off for these calls is given here.

Key:
[1] = molecular target: T1, Glutathione reductase, mitochondrial (Homo sapiens) (UniProt P00390); test: Covalent binding affinity to Cys278 residue of glutathione reductase (unknown origin) by mass spectrometry
T1 sequence (whole entry): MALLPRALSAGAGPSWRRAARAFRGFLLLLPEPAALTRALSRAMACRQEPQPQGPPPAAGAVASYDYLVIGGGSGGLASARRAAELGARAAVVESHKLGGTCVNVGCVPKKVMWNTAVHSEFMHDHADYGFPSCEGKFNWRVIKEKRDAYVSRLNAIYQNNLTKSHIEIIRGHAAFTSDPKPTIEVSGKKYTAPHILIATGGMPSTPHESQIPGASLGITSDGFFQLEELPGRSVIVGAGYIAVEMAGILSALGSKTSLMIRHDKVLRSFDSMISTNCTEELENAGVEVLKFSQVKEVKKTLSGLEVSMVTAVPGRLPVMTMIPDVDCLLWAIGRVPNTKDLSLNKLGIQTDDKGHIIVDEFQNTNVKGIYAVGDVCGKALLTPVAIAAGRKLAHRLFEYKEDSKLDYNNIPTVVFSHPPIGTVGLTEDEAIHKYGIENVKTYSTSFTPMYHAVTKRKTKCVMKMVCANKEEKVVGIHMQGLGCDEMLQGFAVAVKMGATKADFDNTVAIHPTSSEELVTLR

HCT-116 = test: Cytotoxicity against human HCT-116 cells assessed as reduction in cell viability measured after 48 hrs; assay type: functional, cell-based; settings: HCT-116, 48 h
HeLa [2] = test: Cytotoxicity against human HeLa cells assessed as reduction in cell viability measured after 48 hrs; assay type: functional, cell-based
[3] = molecular target: T2, Glutathione reductase, mitochondrial (Homo sapiens, UniProt P00390); test: Inhibition of glutathione reductase (unknown origin)
T2 sequence (P00390 whole entry): T1 sequence (whole entry)

MCF7 = test: Cytotoxicity against human MCF7 cells assessed as reduction in cell viability measured after 48 hrs; assay type: functional, cell-based; settings: MCF7, 48 h
HepG2 [4] = test: Cytotoxicity against human HepG2 cells assessed as reduction in cell viability measured after 48 hrs; assay type: functional, cell-based; settings: HepG2, 48 h
[5] = Drug uptake in human HeLa cells mitochondria measured after 6 hrs; assay type: ADME
A549 = test: Cytotoxicity against human A549 cells assessed as reduction in cell viability measured after 48 hrs; assay type: functional, cell-based; settings: A549, 48 h
Cell membrane [6] = test: Dissipation of mitochondrial membrane potential in human HeLa cells assessed as proportion of cells with high MMP at 5 uM measured after 24 hrs by JC-1 staining based flow cytometry (reference value: 96.54%); settings: Mitochondria
HeLa [7] = test: Inhibition of mitochondrial respiration in human HeLa cells assessed as decrease in oxygen consumption rate at 2 uM incubated for 24 hrs by Seahorse XF-bioenergetic system analysis; assay type: functional, cell-based
HeLa [8] = test: Induction of autophagy in human HeLa cells assessed as increase in ratio of lipidated LC3B-II to LC3B-I incubated for 24 hrs by immunoblotting analysis; assay type: functional, cell-based; settings: dose 0.5-10 µM
HepG2 [9] = test: Inhibition of mitochondrial respiration in human HepG2 cells assessed as decrease in oxygen consumption rate by Seahorse XF-bioenergetic system analysis; assay type: functional, cell-based
Cell membrane [10] = test: Dissipation of mitochondrial membrane potential in human HeLa cells assessed as proportion of cells with high MMP at 0.5 uM measured after 24 hrs by JC-1 staining based flow cytometry (reference value: 96.54%); settings: Mitochondria
HeLa [11] = test: Inhibition of mitochondrial respiration in human HeLa cells assessed as increase in proton leakage; assay type: functional, cell-based
HeLa [12] = test: Induction of mitochondrial morphological changes in human HeLa cells assessed as increase in Mitofilin expression at 2 uM by immunofluorescence analysis; assay type: functional, cell-based
Cell membrane [13] = test: Dissipation of mitochondrial membrane potential in human HeLa cells assessed as proportion of cells with low MMP at 5 uM measured after 24 hrs by JC-1 staining based flow cytometry (reference value: 3.01%); settings: Mitochondria
HeLa [14] = test: Induction of mitochondrial morphological changes in human HeLa cells assessed as disappearance of cristae and vacuolar mitochondrial formation at 10 uM incubated for 48 hrs by transmission electron microscopy; assay type: functional, cell-based
HeLa [15] = test: Inhibition of mitochondrial respiration in human HeLa cells assessed as decrease in ATP production capacity; assay type: functional, cell-based
HeLa [16] = test: Induction of mitochondrial morphological changes in human HeLa cells assessed as multilayered vesicles formation at IC50 incubated for 48 hrs by transmission electron microscopy; assay type: functional, cell-based
HepG2 [17] = test: Inhibition of glycolysis in human HepG2 cels assessed as decrease in extracellular acidification rate; assay type: functional, cell-based
Cell membrane [18] = test: Dissipation of mitochondrial membrane potential in human HeLa cells assessed as proportion of cells with low MMP at 0.5 uM measured after 24 hrs by JC-1 staining based flow cytometry (reference value: 3.01%); settings: Mitochondria
[19] = Increase in oxidized glutathione (GSSG) levels in human HeLa cells relative to control; assay type: functional
HeLa [20] = test: Inhibition of glycolysis in human HeLa cells assessed as decrease in extracellular acidification rate at 2 uM; assay type: functional, cell-based
HeLa [21] = test: Decrease in reduced glutathione (GSH) levels in human HeLa cells at 1 to 5 uM incubated for 6 hrs by Thiol-tracker Violet based confocal imaging analysis; assay type: functional, cell-based; settings: dose 1-5 µM
HeLa [22] = test: Induction of autophagy in human HeLa cells assessed as downregulation of p62 expression incubated for 24 hrs by immunoblotting analysis; assay type: functional, cell-based; settings: dose 0.5-10 µM
[23] = molecular target: T1, Glutathione reductase, mitochondrial (Homo sapiens); test: Inhibition of glutathione reductase in human HeLa cells mitochondria; settings: concentration not given here
HeLa [24] = test: Inhibition of mitochondrial respiration in human HeLa cells assessed as decrease in basal respiration; assay type: functional, cell-based
HeLa [25] = test: Induction of ROS production in human HeLa cells by DCFDA staining based fluorescence analysis; assay type: functional, cell-based
Cell membrane [26] = test: Dissipation of mitochondrial membrane potential in human HeLa cells assessed as increase in green fluorescence intensity at 0.5 to 5 uM measured after 24 hrs by JC-1 staining based fluorescence microscopy; settings: Mitochondria, dose 0.5-5 µM
HeLa [27] = test: Induction of autophagy in human HeLa cells assessed as autophagosomes vacuole formation; assay type: functional, cell-based
[28] = molecular target: T1, Glutathione reductase, mitochondrial (Homo sapiens); test: Inhibition of glutathione reductase in human HeLa cells; assay type: cell-based; settings: concentration not given here
HeLa [29] = test: Induction of mitophagy in human HeLa cells assessed as localization of mitochondria in vacuoles at 10 uM incubated for 48 hrs by transmission electron microscopy; assay type: functional, cell-based
HeLa [30] = test: Cytotoxicity against GR-knock out human HeLa cells assessed as reduction in cell viability at 10 uM incubated for 48 hrs; assay type: functional, cell-based
HeLa [31] = test: Induction of mitophagy in human HeLa cells assessed as colocalization of mitochondria and lysosomes by confocal laser scanning microscopy; assay type: functional, cell-based
HeLa [32] = test: Decrease in reduced glutathione (GSH) levels in human HeLa cells; assay type: functional, cell-based
HeLa [33] = test: Increase in oxidized glutathione (GSSG) levels in human HeLa cells assessed as decrease in ratio of intracellular GSH to GSSG at 1 to 20 uM; assay type: functional, cell-based; settings: dose 1-20 µM
Cell membrane [34] = test: Dissipation of mitochondrial membrane potential in human HeLa cells assessed as proportion of cells with low MMP measured after 24 hrs by JC-1 staining based flow cytometry (reference value: 3.01%); settings: Mitochondria
Cell membrane [35] = test: Dissipation of mitochondrial membrane potential in human HeLa cells assessed as proportion of cells with high MMP measured after 24 hrs by JC-1 staining based flow cytometry (reference value: 96.54%); settings: Mitochondria

SMILES: COc1ccc(C(=O)/C=C/c2cccc([N+](=O)[O-])c2)cc1F
- Activity [1]: inactive
- IC50 (HCT-116): > 50 µM
- IC50 (HeLa [2]): > 50 µM
- IC50 [3]: Not Active
- IC50 (MCF7): > 100 µM
- IC50 (HepG2 [4]): > 50 µM
- Drug uptake [5]: 12%
- IC50 (A549): > 100 µM

SMILES: O=C(/C=C/c1cccc([N+](=O)[O-])c1)c1ccc(OCc2cn(CCCC[P+](c3ccccc3)(c3ccccc3)c3ccccc3)nn2)c(F)c1
- Activity (Cell membrane [6]): 15.6%
- inhibition (HeLa [7]): Active
- Activity [1]: Active
- Activity (HeLa [8]): Dose-Dependent Effect
- inhibition (HepG2 [9]): Active
- IC50 (HCT-116): 8.2 µM
- IC50 (HeLa [2]): 2.4 µM
- Activity (Cell membrane [10]): 49.4%
- inhibition (HeLa [11]): Active
- Activity (HeLa [12]): Active
- Activity (Cell membrane [13]): 80.7%
- Activity (HeLa [14]): Active
- inhibition (HeLa [15]): Active
- IC50 ([3]; read-out: IC50): 0.59 µM
- IC50 (MCF7): 17.4 µM
- Activity (HeLa [16]): Active
- IC50 (HepG2 [4]): 4.6 µM
- inhibition (HepG2 [17]): Active
- Activity (Cell membrane [18]): 50.1%
- fold change (FC) [19]: 2
- inhibition (HeLa [20]): Active
- inhibition (HeLa [21]): inactive
- Activity (HeLa [22]): Dose-Dependent Effect
- inhibition [23]: 50%
- inhibition (HeLa [24]): Active
- Activity (HeLa [25]): Active
- Activity (Cell membrane [26]): Active
- Activity (HeLa [27]): Active
- inhibition [28]: 20%
- Activity (HeLa [29]): Active
- Activity (HeLa [30]): inactive
- Activity (HeLa [31]): Active
- Drug uptake [5]: 33%
- inhibition (HeLa [32]): inactive
- Activity (HeLa [33]): Active
- IC50 (A549): 10.2 µM

SMILES: N#CC(C#N)=NNc1cccc(Cl)c1
- Activity (Cell membrane [34]): 98.8%
- Activity (Cell membrane [35]): 1.24%
